Assay results reported in patent US20230119894A1, “THERAPEUTIC OR PROPHYLACTIC METHOD FOR DIABETES USING COMBINATION MEDICINE” (Japan Tobacco Inc., priority 2019, published 2023).
Marks after values point to notes of the source that are not given here.

Tests used:
[1] = tested on: glucose-loaded SD rats; experiment: OGTT (Oral Glucose Tolerance Test), Test Example 3; format: in vivo, rat; conditions: male SD rats; 3 mg/kg oral, 16 hours before glucose load; compared to vehicle, FIG. 2
Protocol: Vehicle (0.5% methylcellulose solution), or Compound 1, Compound A, or Compound B (3 mg/kg each) suspended in a 0.5% methylcellulose solution was orally administered in 5 mL/kg to an about 4-hour-fasted male SD rat (8-week old, Nihon Charles River K.K., 5 cases for each group).
Statistical analyses were based on Dunnett's multiple group test. The significance level was two-sided 5%.

[2] = tested on: glucose-loaded SD rats; experiment: OGTT (Oral Glucose Tolerance Test), Test Example 2; format: in vivo, rat; conditions: male SD rats; 1, 3, or 10 mg/kg oral, 16 hours before glucose load; compared to vehicle, FIG. 1
Protocol: Vehicle (0.5% methylcellulose solution) or Compound 1 (1, 3, or 10 mg/kg) suspended in a 0.5% methylcellulose solution was orally administered in 5 mL/kg to an about 4-hour-fasted male SD rat (8-week old, Nihon Charles River K.K., 6 cases for each group).
Statistical analyses were based on Steel's multiple test. The significance level was two-sided 5%.

[3] = tested on: Salmonella typhimurium TA1535; experiment: Ames test (reverse mutation test), TA1535
Protocol: (§1) Metabolites 1, 3, and 5 and Metabolites C to H were each tested herein. The purpose of this test is to evaluate the potential of each metabolite to induce reverse mutations in the standard strains of Salmonella typhimurium (TA98, TA1537, TA100, and TA1535) and Escherichia coli (WP2uvrA), in either the presence or absence of a rat liver metabolic activation system (S9 mix).
(§2) The solvent used herein was dimethyl sulfoxide (DMSO, 100 μL/plate).
(§3) The test was performed by the pre-incubation method with or without S9 mix. When the test was performed without S9 mix, sodium phosphate buffer solution (pH 7.4) was added.
(§4) 0.5 mL of S9 mix or 0.5 mL of 0.1 mol/L sodium phosphate buffer solution (pH 7.4), and 0.1 mL of the bacterial culture solution were added to a test tube containing 0.1 mL of the negative control formulation (DMSO alone), the metabolite, or the positive control formulation. The mixtures were pre-incubated at 37° C. for 20 minutes while shaking. After the pre-incubation period, 2 mL of top agar were added and the mixtures were vortex-mixed and seeded onto plates. Two plates per treatment were used. Each plate was incubated at 37±1° C. for 48 hours or more and the revertant colonies were counted. The mean number of revertant colonies for each treatment plate was then calculated. […] Evaluation was based on mean values with no statistical comparisons being used.

[4] = tested on: Salmonella typhimurium TA1537; experiment: Ames test (reverse mutation test), TA1537; conditions: TA1537
Protocol: as §1, §2, §3, §4

[5] = tested on: Salmonella typhimurium TA98; experiment: Ames test (reverse mutation test), TA98; conditions: TA98
Protocol: as §1, §2, §3, §4

[6] = tested on: Escherichia coli WP2uvrA; experiment: Ames test (reverse mutation test), WP2uvrA; format: cell-based; conditions: WP2uvrA
[7] = tested on: Salmonella typhimurium TA100; experiment: Ames test (reverse mutation test), TA100; conditions: TA100
Protocol: as §1, §2, §3, §4

C[C@H]1C(=O)NC[C@@H]1C(=O)Nc1cc(-c2cc(F)cc(OC(C)(C)C)c2)n(C(F)(F)F)n1 [Example 1, (3R,4R)—N-(5-(3-(tert-butoxy)-5-fluorophenyl)-1-(trifluoromethyl)-1H-pyrazol-3-yl)-4-methyl-5-oxopyrrolidine-3-carboxamide]
blood glucose level after the glucose load (Δ AUC 0-120 minutes, % of Vehicle) [1]: significantly reduced
blood glucose level after the glucose load (Δ AUC 0-120 minutes, % of Vehicle) [2]: significantly reduced

Nc1cc(-c2cc(F)cc(OC(F)(F)F)c2)n(-c2cncc(F)c2)n1 [Metabolite 3]
Number of revertant colonies ([3]; S9 mix +, 6.9 μg/plate): 8
Number of revertant colonies ([3]; S9 mix +, 21 μg/plate): 9
Number of revertant colonies ([3]; S9 mix +, 62 μg/plate): 11
Number of revertant colonies ([3]; S9 mix +, 185 μg/plate): 9
Number of revertant colonies ([3]; S9 mix +, 556 μg/plate): 4*
Number of revertant colonies ([3]; S9 mix +, 1667 μg/plate): 3*†
Number of revertant colonies ([3]; S9 mix +, 5000 μg/plate): 1*†
Number of revertant colonies ([3]; S9 mix −, 6.9 μg/plate): 9
Number of revertant colonies ([3]; S9 mix −, 21 μg/plate): 11
Number of revertant colonies ([3]; S9 mix −, 62 μg/plate): 10
Number of revertant colonies ([3]; S9 mix −, 185 μg/plate): 8
Number of revertant colonies ([3]; S9 mix −, 556 μg/plate): 8*
Number of revertant colonies ([3]; S9 mix −, 1667 μg/plate): 0*†
Number of revertant colonies ([3]; S9 mix −, 5000 μg/plate): 0*†
Number of revertant colonies ([4]; S9 mix +, 6.9 μg/plate): 12
Number of revertant colonies ([4]; S9 mix +, 21 μg/plate): 13
Number of revertant colonies ([4]; S9 mix +, 62 μg/plate): 12
Number of revertant colonies ([4]; S9 mix +, 185 μg/plate): 12
Number of revertant colonies ([4]; S9 mix +, 556 μg/plate): 8*
Number of revertant colonies ([4]; S9 mix +, 1667 μg/plate): 0*†
Number of revertant colonies ([4]; S9 mix +, 5000 μg/plate): 1*†
Number of revertant colonies ([4]; S9 mix −, 6.9 μg/plate): 9
Number of revertant colonies ([4]; S9 mix −, 21 μg/plate): 8
Number of revertant colonies ([4]; S9 mix −, 62 μg/plate): 8
Number of revertant colonies ([4]; S9 mix −, 185 μg/plate): 8
Number of revertant colonies ([4]; S9 mix −, 556 μg/plate): 3*
Number of revertant colonies ([4]; S9 mix −, 1667 μg/plate): 3*†
Number of revertant colonies ([4]; S9 mix −, 5000 μg/plate): 2*†
Number of revertant colonies ([5]; S9 mix +, 6.9 μg/plate): 35
Number of revertant colonies ([5]; S9 mix +, 21 μg/plate): 37
Number of revertant colonies ([5]; S9 mix +, 62 μg/plate): 35
Number of revertant colonies ([5]; S9 mix +, 185 μg/plate): 36
Number of revertant colonies ([5]; S9 mix +, 556 μg/plate): 22*
Number of revertant colonies ([5]; S9 mix +, 1667 μg/plate): 20*†
Number of revertant colonies ([5]; S9 mix +, 5000 μg/plate): 16*†
Number of revertant colonies ([5]; S9 mix −, 6.9 μg/plate): 30
Number of revertant colonies ([5]; S9 mix −, 21 μg/plate): 30
Number of revertant colonies ([5]; S9 mix −, 62 μg/plate): 28
Number of revertant colonies ([5]; S9 mix −, 185 μg/plate): 28
Number of revertant colonies ([5]; S9 mix −, 556 μg/plate): 12*
Number of revertant colonies ([5]; S9 mix −, 1667 μg/plate): 9*†
Number of revertant colonies ([5]; S9 mix −, 5000 μg/plate): 7*†
Number of revertant colonies ([6]; S9 mix +, 6.9 μg/plate): 19
Number of revertant colonies ([6]; S9 mix +, 21 μg/plate): 19
Number of revertant colonies ([6]; S9 mix +, 62 μg/plate): 19
Number of revertant colonies ([6]; S9 mix +, 185 μg/plate): 19
Number of revertant colonies ([6]; S9 mix +, 556 μg/plate): 17*
Number of revertant colonies ([6]; S9 mix +, 1667 μg/plate): 14*†
Number of revertant colonies ([6]; S9 mix +, 5000 μg/plate): 9*†
Number of revertant colonies ([6]; S9 mix −, 6.9 μg/plate): 21
Number of revertant colonies ([6]; S9 mix −, 21 μg/plate): 16
Number of revertant colonies ([6]; S9 mix −, 62 μg/plate): 23
Number of revertant colonies ([6]; S9 mix −, 185 μg/plate): 20
Number of revertant colonies ([6]; S9 mix −, 556 μg/plate): 16*
Number of revertant colonies ([6]; S9 mix −, 1667 μg/plate): 13*†
Number of revertant colonies ([6]; S9 mix −, 5000 μg/plate): 8*†
Number of revertant colonies ([7]; S9 mix +, 6.9 μg/plate): 109
Number of revertant colonies ([7]; S9 mix +, 21 μg/plate): 119
Number of revertant colonies ([7]; S9 mix +, 62 μg/plate): 118
Number of revertant colonies ([7]; S9 mix +, 185 μg/plate): 125
Number of revertant colonies ([7]; S9 mix +, 556 μg/plate): 115*†
Number of revertant colonies ([7]; S9 mix +, 1667 μg/plate): 97*†
Number of revertant colonies ([7]; S9 mix +, 5000 μg/plate): 92*†
Number of revertant colonies ([7]; S9 mix −, 6.9 μg/plate): 89
Number of revertant colonies ([7]; S9 mix −, 21 μg/plate): 90
Number of revertant colonies ([7]; S9 mix −, 62 μg/plate): 87
Number of revertant colonies ([7]; S9 mix −, 185 μg/plate): 86
Number of revertant colonies ([7]; S9 mix −, 556 μg/plate): 6*
Number of revertant colonies ([7]; S9 mix −, 1667 μg/plate): 5*†
Number of revertant colonies ([7]; S9 mix −, 5000 μg/plate): 5*†
